Activity calls are given as the source filed them. The rule behind the calls is not given here.
Legend:
[1] = (§1) Cytotoxicity against mouse NS1 cells; type: functional
Candida albicans = assay: Antifungal activity against Candida albicans; type: functional, organism-based
Bacillus subtilis = assay: Antibacterial activity against Bacillus subtilis; type: functional, organism-based
NS1 = assay: as §1; type: functional

For `C=C1[C@@H](C)[C@H]2[C@H](Cc3c[nH]c4ccccc34)NC(=O)[C@]23C(=O)/C=C/C(=O)[C@H](OC(C)=O)/C(C)=C\[C@@H](C)C/C=C/[C@H]3[C@@H]1O`, the LD99 [1] was 0.8 µg/mL.

Molecule `CC(=O)O[C@H]1C(=O)/C=C/C(=O)[C@@]23C(=O)N[C@@H](Cc4c[nH]c5ccccc45)[C@@H]2C(C)=C(C)[C@@H](O)[C@@H]3/C=C/C[C@H](C)/C=C\1C` [19-O-ACETYLCHAETOGLOBOSIN B] has an LD99 [1] of 1.6 µg/mL.

For `CC(O)CCCCC(C)C1CC(O)C(C)C(=O)N[C@H](Cc2ccccc2)C(=O)N2CCC[C@H]2C(=O)O1` (stereo not given in full), the Activity (Candida albicans) was “inactive”, the Activity (Bacillus subtilis) was “inactive” and the Activity (NS1) was “inactive”.

In the case of `CC(O)CCCCC(C)C1CC(O)C(C)C(=O)N[C@H](C(C)C)C(=O)N2CCC[C@H]2C(=O)O1` (stereo not given in full), the Activity (Candida albicans) was “inactive”, the Activity (Bacillus subtilis) was “inactive” and the Activity (NS1) was “inactive”.

In the case of `C/C=C/c1cccc(O)c1CO`, the Activity (NS1) was “inactive”.

For `CC[C@@H](C)[C@H]1NC(=O)C(C)C(O)CC(C(C)CCCCC(C)O)OC(=O)[C@@H]2CCCN2C1=O` (stereo not given in full), the Activity (Candida albicans) was “inactive”, the Activity (Bacillus subtilis) was “inactive” and the Activity (NS1) was “inactive”.

For `CC(=O)CCCCC(C)C1CC(O)C(C)C(=O)N[C@H](Cc2ccccc2)C(=O)N2CCC[C@H]2C(=O)O1` (stereo not given in full), the Activity (Candida albicans) was “inactive”, the Activity (Bacillus subtilis) was “inactive” and the Activity (NS1) was “inactive”.

Source: ChEMBL document CHEMBL1144834, “Acremolides A-D, lipodepsipeptides from an Australian marine-derived fungus, Acremonium sp” (2008)
